Key:
Type in all cases: in vivo
[1] = system: Botryotinia fuckeliana (Botrytis cinerea); test: Botryotinia fuckeliana (Botrytis cinerea) / tomato / preventative (Botrytis on tomato); details: tomato plants cv. Roter Gnom, inoculated two days after application, vs untreated control, read-out: disease control
Method: (§1) Botryotinia fuckeliana (Botrytis cinerea)/Tomato/Preventative (Botrytis on Tomato) 4-week old tomato plants cv. Roter Gnom are treated with the formulated test compound in a spray chamber. The test plants are inoculated by spraying them with a spore suspension two days after application. The inoculated test plants are incubated at 20° C. and 95% rh in a greenhouse and the percentage leaf area covered by disease is assessed when an appropriate level of disease appears on untreated check plants (5-6 days after application).

[2] = system: Mycosphaerella arachidis (Cercospora arachidicola); test: Mycosphaerella arachidis (Cercospora arachidicola) / peanut / preventative; details: peanut plants cv. Georgia Green, inoculated one day after application, vs untreated control, read-out: disease control
Method: Mycosphaerella arachidis (Cercospora arachidicola)/Peanut/Preventative 3-week old peanut plants cv. Georgia Green are treated with the formulated test compound in a spray chamber. The test plants are inoculated by spraying them with a spore suspension on their lower leaf surface one day after application. After an incubation period of 4 days under a plastic hood at 23° C. and 100% rh, the test plants are kept at 23° C./20° C. (day/night) and 70% rh in a greenhouse. The percentage leaf area covered by disease is assessed when an appropriate level of disease appears on untreated check plants (12-14 days after application).

Alternaria solani = Alternaria solani / tomato / preventative (Alternaria on tomato); details: tomato plants cv. Roter Gnom, inoculated two days after application, vs untreated control, read-out: disease control
Method: as §1, with “Alternaria solani/Tomato/Preventative (Alternaria” for “Botryotinia fuckeliana (Botrytis cinerea)/Tomato/Preventative (Botrytis”, “22/18°” for “20°”, “C. (day/night)” for “C.”, “(5-7” for “(5-6”

Plasmopara viticola = Plasmopara viticola / grape / preventative (grape downy mildew); details: grape seedlings cv. Gutedel, inoculated one day after application, vs untreated control, read-out: disease control
Method: Plasmopara viticola/Grape/Preventative (Grape Downy Mildew)
5-week old grape seedlings cv. Gutedel are treated with the formulated test compound in a spray chamber. The test plants are inoculated by spraying a sporangia suspension on their lower leaf surface one day after application. The inoculated test plants are incubated at 22° C. and 100% rh in a greenhouse and the percentage leaf area covered by disease is assessed when an appropriate level of disease appears on untreated check plants (6-8 days after application).

[3] = system: Pyrenophora teres (Helminthosporium teres); test: Pyrenophora teres (Helminthosporium teres) / barley / preventative (net blotch on barley); details: barley plants cv. Regina, inoculated 2 days after application, vs untreated control, read-out: disease control
Method: Pyrenophora teres (Helminthosporium teres)/Barley/Preventative (Net Blotch on Barley) 1-week old barley plants cv. Regina are treated with the formulated test compound in a spray chamber. The test plants are inoculated by spraying them with a spore suspension 2 days after application. The inoculated test plants are incubated at 20° C. and 95% rh and the percentage leaf area covered by disease is assessed when an appropriate level of disease appears on untreated check plants (5-7 days after application).

[4] = system: Erysiphe necator (Uncinula necator); test: Erysiphe necator (Uncinula necator) / grape / preventative (powdery mildew on grape); details: grape seedlings cv. Gutedel, inoculated 1 day after application, vs untreated control, read-out: disease control
Method: Erysiphe necator (Uncinula necator)/Grape/Preventative (Powdery Mildew on Grape) 5-week old grape seedlings cv. Gutedel are treated with the formulated test compound in a spray chamber. The test plants are inoculated by shaking plants infected with grape powdery mildew above them 1 day after application. The inoculated test plants are incubated at 24/22° C. (day/night) and 70% rh under a light regime of 14/10 h (light/dark) and the percentage leaf area covered by disease is assessed when an appropriate level of disease appears on untreated check plants (7-9 days after application).

[5] = system: Mycosphaerella graminicola (Septoria tritici); test: Mycosphaerella graminicola (Septoria tritici) / wheat / preventative (Septoria tritici leaf spot on wheat); details: Zymoseptoria tritici, wheat plants cv. Riband, inoculated one day after application, vs untreated control, read-out: disease control
Method: Mycosphaerella graminicola (Septoria tritici)/Wheat/Preventative (Septoria tritici Leaf Spot on Wheat) 2-week old wheat plants cv. Riband are treated with the formulated test compound in a spray chamber. The test plants are inoculated by spraying a spore suspension on them one day after application. After an incubation period of 1 day at 22° C./21° C. (day/night) and 95% rh, the test plants are kept at 22° C./21° C. (day/night) and 70% rh in a greenhouse. The percentage leaf area covered by disease is assessed when an appropriate level of disease appears on untreated check plants (16-19 days after application).

[6] = system: Phaeosphaeria nodorum (Septoria nodorum); test: Phaeosphaeria nodorum (Septoria nodorum) / wheat / leaf disc preventative (glume blotch); details: Parastagonospora nodorum, foliar, wheat leaf segments cv. Kanzler on agar, inoculated 2 days after application, vs untreated control, read-out: disease control
Method: Phaeosphaeria nodorum (Septoria nodorum)/Wheat/Leaf Disc Preventative (Glume Blotch) Wheat leaf segments cv. Kanzler are placed on agar in a multiwell plate (24-well format) and sprayed with the formulated test compound diluted in water. The leaf disks are inoculated with a spore suspension of the fungus 2 days after application. The inoculated test leaf disks are incubated at 20° C. and 75% rh under a light regime of 12 h light/12 h darkness in a climate cabinet and the activity of a compound is assessed as percent disease control compared to untreated when an appropriate level of disease damage appears in untreated check leaf disks (5-7 days after application).

Measured: pest or weed control at 200 ppm

c1ccc(-c2cccc(-c3ncc4ccccc4n3)n2)cc1 [2/1]
≥ 80%: [1] | [2]

c1cc(-c2ncc3ccccc3n2)nc(-c2cccc3ccccc23)c1 [2/6]
≥ 80%: Alternaria solani | [1] | [2] | Plasmopara viticola | [3]

Clc1ccccc1-c1cccc(-c2ncc3ccccc3n2)n1 [2/13]
≥ 80%: Alternaria solani | [1] | [2] | Plasmopara viticola

CCc1ccccc1-c1cccc(-c2ncc3ccccc3n2)n1 [2/37]
≥ 80%: Alternaria solani | [1] | [2] | Plasmopara viticola

Cc1ccc(C)c(-c2cccc(-c3ncc4ccccc4n3)n2)c1 [2/54]
≥ 80%: Alternaria solani | [4] | [2] | Plasmopara viticola | [3]

COc1ccc(Cl)cc1-c1cccc(-c2ncc3ccccc3n2)n1 [2/68]
≥ 80%: Alternaria solani | [4] | Plasmopara viticola

Cc1ccc(F)c(-c2nc(-c3ncc4ccccc4n3)ccc2C)c1 [3/9]
not listed: [4] | [6]
≥ 80%: all other assays above

Cc1ccc(-c2nc(-c3ncc4ccccc4n3)ccc2C)cc1Cl [3/21]
≥ 80%: Alternaria solani | [1] | [4] | Plasmopara viticola

Cc1ccc(F)cc1-c1nc(-c2ncc3ccccc3n2)ccc1C [3/26]
≥ 80%: Alternaria solani | [1] | [2] | Plasmopara viticola | [3]

Cc1ccc(-c2ncc3ccccc3n2)nc1-c1cccc(F)c1F [3/38]
not listed: [5] | [6]
≥ 80%: all other assays above

COc1ccc(-c2nc(-c3ncc4ccccc4n3)ccc2C)c(C)c1 [3/53]
not listed: [5] | [6]
≥ 80%: all other assays above

Cc1ccc(-c2ncc3ccccc3n2)nc1-c1ccc(Cl)cc1 [3/74]
≥ 80%: Alternaria solani | [5] | Plasmopara viticola | [3]

Cc1ccc(-c2ncc3ccccc3n2)nc1-c1ccccc1F [3/82]
≥ 80%: Alternaria solani | [5] | Plasmopara viticola | [3]

Cc1ccc(-c2ncc3ccccc3n2)nc1-c1ccc(F)cc1F [3/83]
≥ 80%: Alternaria solani | [1] | [5] | Plasmopara viticola | [3]

COc1ccc(-c2nc(-c3ncc4ccccc4n3)ccc2C)cc1C [3/93]
≥ 80%: Alternaria solani | [5] | Plasmopara viticola | [3]

Cc1ccc(-c2nc(-c3ncc4ccccc4n3)ccc2C)cc1F [3/94]
≥ 80%: Alternaria solani | [1] | [5] | Plasmopara viticola | [3]

Cc1ccc(-c2ncc3ccccc3n2)nc1-c1ccc(F)cc1O [3/101]
≥ 80%: Alternaria solani | [1] | [5] | Plasmopara viticola | [3]

Cc1ccc(-c2ncc3ccccc3n2)nc1Oc1ccc(F)cc1 [5/3]
≥ 80%: [2] | Plasmopara viticola | [3]

Cc1ccc(Cc2cccc(-c3ncc4ccccc4n3)n2)cc1 [6/10]
≥ 80%: [5]

Clc1cccc(Cc2cccc(-c3ncc4ccccc4n3)n2)c1 [6/11]
not listed: Plasmopara viticola | [6]
≥ 80%: all other assays above

COc1cccc(Cc2cccc(-c3ncc4ccccc4n3)n2)c1 [6/15]
≥ 80%: [5] | Plasmopara viticola | [3]

Clc1ccccc1Cc1cccc(-c2ncc3ccccc3n2)n1 [6/16]
not listed: [2] | [6]
≥ 80%: all other assays above

Clc1ccc(Cc2cccc(-c3ncc4ccccc4n3)n2)cc1 [6/18]
≥ 80%: Alternaria solani | [5] | [3]

Cc1ccccc1Cc1cccc(-c2ncc3ccccc3n2)n1 [6/19]
≥ 80%: Alternaria solani | [5] | Plasmopara viticola | [3]

Cc1ccc(-c2ncc3ccccc3n2)nc1Cc1cccc(C)c1F [7/7]
≥ 80%: Alternaria solani | [4] | Plasmopara viticola | [3]

Cc1ccc(-c2ncc3ccccc3n2)nc1C#CC1CC1 [8/1]
≥ 80%: Alternaria solani | [1] | [2] | Plasmopara viticola

Cc1cccc(-c2ncc3ccccc3n2)n1 [10/4]
≥ 80%: [4] | [2]

c1cc(-c2ncc3ccccc3n2)nc(C2CC2)c1 [10/7]
≥ 80%: [1] | [4] | [2] | Plasmopara viticola

Cc1ccc(-c2nc(C)c3ccccc3n2)nc1-c1ccccc1 [11/8, 4-Methyl-2-(5-methyl-6-phenyl-pyridin-2-yl)-quinazoline]
not listed: [1] | [6]
≥ 80%: all other assays above

Cc1nc(-c2cccc(Cc3ccccc3)n2)nc2ccccc12 [12/6]
≥ 80%: Alternaria solani | [4] | [6]
